From the supplement of paper PMC10307832

Legend:
Experiment in all cases: relative viability (nuclei count vs DMSO), 5 days (fraction); higher = more cells survive
[1] = compound: CN1CCC(CC1)OC2=CC(=C(C=C2)NC3=NC=C4C(=N3)N(C(=O)N4C)C5CCCC5)OC [AZ3146] + N=C(N)NC(=N)NCCc1ccccc1 [Phenformin] (partner 250 µM)
Procedure, shortened: (§1)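 For relative viability, nuclei counts in treated wells were divided by those in vehicle wells. Lung cancer cell lines had been pin-tool dosed in 1536-well plates the day after seeding and cultured for 5 days, then fixed and stained in one step (final 0.05% Triton X-100, 1% formaldehyde, 1 ug/ml Hoechst) and imaged at 4×. Doses were one drug alone or a fixed anchor-drug dose plus five library-drug doses (not always all listed) in √10 steps, and values are duplicate-plate medians.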

[2] = compound: CN1CCC(CC1)OC2=CC(=C(C=C2)NC3=NC=C4C(=N3)N(C(=O)N4C)C5CCCC5)OC [AZ3146]
Procedure, shortened: (§2)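 Five library-drug doses spaced by √10 were pinned onto vehicle-anchored 1536-well plates of lung cancer cell lines that had been kept overnight at 37 °C. Cells went 5 days without medium change, then were fixed, permeabilised and Hoechst-stained together, imaged at 4× and counted by MetaXpress. Viability is the ratio of treated-well to vehicle-well nuclei, taken as a median over plates. Plates required control CV below 25% and at least one doubling.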

[3] = compound: CCOC(=O)CCNc1cc(N2CCc3ccccc3CC2)nc(-c2ccccn2)n1 [GSK-J4]
Procedure, shortened: as §2

[4] = compound: CCOC(=O)CCNc1cc(N2CCc3ccccc3CC2)nc(-c2ccccn2)n1 [GSK-J4] + CC1(C)CCC(c2ccc(Cl)cc2)=C(CN2CCN(c3ccc(C(=O)NS(=O)(=O)c4ccc(N[C@H](CCN5CCOCC5)CSc5ccccc5)c(S(=O)(=O)C(F)(F)F)c4)cc3)CC2)C1 [Navitoclax] (partner 0.5 µM)
Procedure, shortened: as §1

Row | Cell Line | relative viability ([1]; first compound 0.08 µM) | relative viability ([1]; first compound 0.253 µM) | relative viability ([1]; first compound 0.8 µM) | relative viability ([1]; first compound 2.53 µM) | relative viability ([1]; first compound 8 µM) | relative viability ([2]; 0.08 µM) | relative viability ([2]; 0.253 µM) | relative viability ([2]; 0.8 µM) | relative viability ([2]; 2.53 µM) | relative viability ([2]; 8 µM) | relative viability ([3]; 0.5 µM) | relative viability ([3]; 1.581 µM) | relative viability ([3]; 5 µM) | relative viability ([3]; 15.81 µM) | relative viability ([3]; 50 µM) | relative viability ([4]; first compound 0.5 µM) | relative viability ([4]; first compound 5 µM) | relative viability ([4]; first compound 15.81 µM) | relative viability ([4]; first compound 50 µM) | relative viability ([4]; first compound 1.581 µM)
1 | NCI-H1623 | 0.586 | 0.534 | 0.591 | 0.607 | 0.565 | 1.03 | 0.991 | 0.78 | 0.944 | 0.956 | 1.05 | 0.739 | 1.31 | 0.825 | 0.959 | – | – | – | – | –
2 | ChaGo-K-1 | 0.581 | 0.452 | 0.474 | 0.426 | 0.333 | 0.942 | 0.885 | 0.964 | 1.04 | 0.741 | 0.986 | – | 0.993 | 0.974 | 0.918 | 1.09 | 1.02 | 1.03 | 0.895 | –
3 | LCLC-97TM1 | 0.386 | 0.411 | 0.326 | 0.433 | 0.448 | 0.836 | 1.01 | 0.932 | 1.1 | 0.751 | 0.865 | 0.753 | 1.05 | 0.608 | 0.755 | – | 0.43 | 0.178 | 0.307 | –
4 | NCI-H1299 | – | – | – | – | – | 0.987 | 0.995 | 0.996 | 1.02 | 0.992 | 0.982 | 0.952 | 0.877 | 0.998 | 1 | 1.08 | 0.955 | 1.04 | 0.971 | 0.875
5 | ABC-1 | 0.266 | 0.19 | 0.212 | 0.226 | 0.26 | 0.892 | 0.901 | 1.02 | 1.02 | 0.867 | 1.04 | 0.869 | 0.803 | 0.797 | 0.403 | – | – | – | – | –
6 | NCI-H358 | 0.451 | 0.283 | 0.319 | 0.313 | 0.149 | 0.977 | 0.923 | 0.873 | 1.1 | 0.785 | 0.981 | 0.843 | 0.977 | 0.819 | 0.807 | – | – | – | – | –
7 | NCI-H2342 | 0.568 | 0.565 | 0.615 | 0.512 | 0.51 | 0.902 | 0.937 | 1.11 | 0.875 | 0.928 | 0.919 | 1.06 | 0.925 | 1.03 | 1.07 | – | – | – | – | –
8 | EBC-1 | – | – | – | – | – | 0.915 | 0.938 | 0.884 | 0.979 | 0.602 | 0.817 | 0.892 | 0.96 | 0.961 | 0.668 | 0.367 | 0.356 | 0.4 | 0.264 | 0.4
9 | Calu-6 | – | – | – | – | – | 0.964 | 1.03 | 0.948 | 0.948 | 0.799 | 0.979 | 0.945 | 0.941 | 0.983 | 1.01 | 0.86 | 0.779 | 0.874 | 0.716 | 0.74
10 | NCI-H650 | 0.386 | 0.44 | 0.445 | 0.526 | 0.461 | 0.776 | 0.822 | 0.867 | 1.02 | 1.03 | 0.931 | 0.653 | 0.494 | 0.832 | 0.751 | – | – | – | – | –
11 | NCI-H661 | 0.285 | 0.25 | 0.265 | 0.274 | 0.29 | 1.02 | 0.988 | 0.92 | 0.98 | 1.05 | 0.969 | 0.922 | 0.904 | 0.927 | 0.723 | – | – | – | – | –
12 | SW 900 | 0.625 | 0.576 | 0.439 | 0.502 | 0.383 | 0.77 | 0.669 | 0.751 | 1.01 | 0.686 | 0.803 | 0.794 | 0.842 | 0.863 | 0.64 | – | – | – | – | –
13 | LCLC-103H | 0.317 | 0.32 | 0.348 | 0.363 | 0.38 | 0.974 | 0.949 | 0.974 | 0.995 | 0.965 | 1.07 | 0.883 | 0.908 | 0.954 | 0.94 | – | – | – | – | –
14 | IA-LM | – | – | – | – | – | 0.971 | 0.998 | 0.987 | 0.957 | 0.742 | 0.887 | 0.84 | 1.17 | 0.821 | 0.315 | 0.747 | 0.802 | 0.666 | 0.105 | 0.718
15 | NCI-H1703 | – | – | – | – | – | 0.979 | 0.901 | 0.789 | 0.806 | 0.55 | 0.936 | 0.903 | 0.815 | 0.781 | 0.804 | 0.944 | 0.776 | 1.08 | 1.25 | 0.963
16 | NCI-H1563 | 0.619 | 0.645 | 0.596 | 0.639 | 0.644 | 0.837 | 0.973 | 1.04 | 0.902 | 0.909 | 0.952 | 1.1 | 0.892 | 0.894 | 0.985 | – | – | – | – | –
17 | NCI-H1648 | – | – | – | – | – | – | 0.654 | 0.924 | 0.921 | 1.03 | 0.992 | – | 1.47 | 0.496 | 0.807 | – | – | – | – | –
